Measured values: patent publication US11034735B2, “Hybrid peptide, set of hybrid peptides, composition, uses of the hybrid peptide, method for inducing an immune response and kits” (priority 2017, dated 2021)

Tests used:
serum of BALB/c mice = experiment: Dot-ELISA, synthetic peptides with serum of immunized BALB/c mice; assay type: in vivo; design: key to Peptide Reactivity, Mice serum inoculated with isolated peptides 1 / Peptide Reactivity, Mice serum inoculated with isolated peptides 2 / Peptide Reactivity, Mice serum inoculated with isolated peptides 3 / Peptide Reactivity, Mice serum inoculated with pool / Peptide Reactivity, Mice serum inoculated with Saline (Negative Control) / Reaction with pool of peptides, Mouse 1 serum / Reaction with pool of peptides, Mouse 2 serum / Reaction with pool of peptides, Mouse 3 serum: — = Did not react; X = Reacted; settings: for Peptide Reactivity, Mice serum inoculated with pool / Peptide Reactivity, Mice serum inoculated with isolated peptides 1 / Peptide Reactivity, Mice serum inoculated with isolated peptides 2 / Peptide Reactivity, Mice serum inoculated with isolated peptides 3 / Peptide Reactivity, Mice serum inoculated with Saline (Negative Control) / Reaction with pool of peptides, Mouse 1 serum / Reaction with pool of peptides, Mouse 2 serum / Reaction with pool of peptides, Mouse 3 serum: Dot-ELISA; for Peptide Reactivity, Mice serum inoculated with pool / Peptide Reactivity, Mice serum inoculated with isolated peptides 1 / Peptide Reactivity, Mice serum inoculated with isolated peptides 2 / Peptide Reactivity, Mice serum inoculated with isolated peptides 3 / Peptide Reactivity, Mice serum inoculated with Saline (Negative Control) / Dot-ELISA reaction of sera from mice inoculated with hybrid peptides alone / Dot-ELISA reaction of mouse sera inoculated with the peptide pool: peptide as antigen; for Peptide Reactivity, Mice serum inoculated with pool: mice inoculated with pool of all 8 hybrid peptides; for Peptide Reactivity, Mice serum inoculated with isolated peptides 1: serum of mouse 1 inoculated with the same isolated peptide; for Peptide Reactivity, Mice serum inoculated with isolated peptides 1 / Peptide Reactivity, Mice serum inoculated with isolated peptides 2 / Peptide Reactivity, Mice serum inoculated with isolated peptides 3: serum 1:25; for Peptide Reactivity, Mice serum inoculated with isolated peptides 2: serum of mouse 2 inoculated with the same isolated peptide; for Peptide Reactivity, Mice serum inoculated with isolated peptides 3: serum of mouse 3 inoculated with the same isolated peptide; for Peptide Reactivity, Mice serum inoculated with Saline (Negative Control): serum of saline-inoculated mice; for Reaction with pool of peptides, Mouse 1 serum / Reaction with pool of peptides, Mouse 2 serum / Reaction with pool of peptides, Mouse 3 serum: pool of peptides as antigen; for Reaction with pool of peptides, Mouse 1 serum: serum of mouse 1 inoculated with the labelled peptide; for Reaction with pool of peptides, Mouse 2 serum: serum of mouse 2 inoculated with the labelled peptide; for Reaction with pool of peptides, Mouse 3 serum: serum of mouse 3 inoculated with the labelled peptide; for Dot-ELISA reaction of mouse sera inoculated with the peptide pool: pool of all 8 hybrid peptides
Experimental: (§1) The immunogenicity of each peptide was checked immunizing BALB/c mice, approximately six weeks old, with […] of protein (Machado et al., 1994). The mice were divided into groups of three animals each. The groups were: P28, P41, P42, P44, P50, P51, P53, P54, Pool (mice inoculated with a pool of peptides, in the case with all 8 hybrid peptides) and negative control group. For inoculations, the peptides were emulsified in Freund's complete adjuvant (Sigma) and inoculated intramuscularly in the quadriceps. Two further immunizations, on the 14th and 28th day after inoculation, were performed using incomplete Freund's adjuvant (Sigma). Each inoculation was carried out using 10 μg/mL of each peptide. Negative control mice were inoculated with sterile saline in place of the peptides and also emulsified in adjuvant. Blood samples were collected by intracardiac puncture on the 10th day after the last immunization and the sera obtained were stored at −20° C. until evaluated by Dot-ELISA and Western-blotting assays.
(§2) Synthetic peptides were used as antigen in the Dot-ELISA technique to verify their ability to react with specific antibodies present in the serum of BALB/c mice, as well as in calf serum, all immunized. The technique was performed as described by Machado et al. (1994), with minor modifications. Briefly, small nitrocellulose discs were cut using a paper punch and each disc arranged in a flat bottom 24-well culture plate well. 4 μg/mL of each synthetic peptide alone, as well as the peptide pool, were deposited on each disc. The discs were dried at room temperature and then blocked for 12 hours at room temperature with […] TBS buffer (0.1 M Tris, 0.1 M NaCl and 0.5% Tween 20; TBS-Tween 20), plus 5% skim milk powder. Test sera were diluted 1:25 (mice and calf) in TBS-Tween 20 containing 5% skim milk powder and incubated for 120 minutes at room temperature and under constant stirring. Then the discs were subjected to two washes with TBS-Tween 20 plus 5% skim milk powder and one wash with TBS-Tween 20 (5 min interval between each wash). To each mouse serum disc was added the alkaline phosphate-coupled anti-mouse conjugate (anti-mouse IgG goat IgG, Sigma A-3562) diluted 1:30,000 in TBS-Tween 20 plus 5% of skim milk powder. To calf serum-containing discs, it was added alkaline phosphate-coupled anti-bovine conjugate (anti-cattle IgG rabbit IgG, Sigma A-0705) diluted 1:30,000 in TBS-Tween 20, plus 5% skim milk powder. After one hour incubation with the appropriate conjugates, washes were followed as in the previous step.

calf serum [1] = experiment: Dot-ELISA, synthetic peptides with serum of calf immunized with peptide pool; assay type: in vivo; design: key to Peptide Reactivity, Calf serum inoculated with pool: — = Did not react; X = Reacted; settings: for Peptide Reactivity, Calf serum inoculated with pool: Dot-ELISA, peptide as antigen, calf inoculated with pool SEQ ID NO: 20, 21, 23, 25, 26; for Dot-ELISA reaction of calf serum inoculated with the peptide pool with the antigen: label = antigen on disc
Description: (§3) The immunogenicity of the synthetic peptides was verified by immunizing a previously tested calf with negative results for Anaplasma marginale, Babesia bovis and Babesia bigemina by serology and PCR. For inoculations, a peptide pool (SEQ ID NO: 20, SEQ ID NO: 21, SEQ ID NO: 23, SEQ ID NO: 25 and SEQ ID NO: 26) was emulsified in Freund's complete adjuvant (Sigma) and, inoculated intramuscularly in the quadriceps. Two further immunizations, on the 14th and 28th day after inoculation, were performed using incomplete Freund's adjuvant (Sigma). Each inoculation was done using 100 μg/mL of each peptide. Blood samples were collected by jugular puncture on the 10th day after the last immunization and the sera obtained were stored at −20° C. until evaluated by Dot-ELISA and Western-blotting assays.
as §2

[2] = system: bovine serum serologically positive / negative / vaccinated for A. marginale; experiment: Dot-ELISA, synthetic peptides with sera of cattle serologically positive, negative or vaccinated for A. marginale; assay type: binding; settings: peptide as antigen
Experimental: as §2

calf serum [3] = experiment: Western blotting, synthetic peptides with calf serum; assay type: in vivo; settings: label = antigen on blot
Description: as §3
(§4) Samples of synthetic peptides were analyzed by Western blotting. To this end, initially, the samples were submitted to polyacrylamide gel electrophoresis under denaturing conditions, according to the technique recommended by Laemmli (1970). Based on the sample volume 2× concentrated sample buffer (250 mM Tris-HCl pH 6.8, 40% glycerol, 8% SDS, 20% β-mercaptoethanol and 0.008% bromophenol blue) was added. The samples were homogenized, incubated for 5 minutes at 100° C. and applied to the gel. The separation gel was prepared at a concentration of 12% polyacrylamide in buffer (1.875 M Tris, pH 8.8 and 1% SDS) and 5% polyacrylamide for buffer packaging gel (1.875 M Tris, pH 6.8 and 0.5% SDS). Electrophoresis was performed in Tris-Glycine Running Buffer (50 mM Tris, pH 8.6, 1.92 M Glycine and 1% SDS) at 100 V for up to 3 hours and 30 minutes at 0° C. in the Mini-Protean II system (Bio-Rad).
Synthetic peptides processed on the polyacrylamide gel (SDS-PAGE) were transferred to the nitrocellulose membrane for analysis by Wester blot (TOWBIN et al., 1979). The nitrocellulose membrane (Merck) was previously incubated in ice cold transfer buffer (0.58% Tris Base pH 8.3, 20% methanol and 0.29% glycine). For this, the membrane was placed in the “Mini Trans-Blot” (Bio-Rad) electrotransfer system containing the same buffer and the transfer was performed at 100 V for 90 minutes. The membrane was incubated in TBS-Tween (10 mM Tris-HCl pH 7.5; 150 mM NaCl, 0.05% Tween-20) plus 5% skim milk powder for 12 hours at 4° C. under low agitation, for saturation of non-specific binding sites. The membrane was then incubated with each serum from each mouse alone or incubated with calf serum for 2 hours at room temperature under slow stirring. It was then subjected to three consecutive 10-minute washes with the same solution under slow agitation. […]

mouse serum = experiment: Western blotting, synthetic peptides with serum of inoculated mice; settings: in vivo
Experimental: as §1, §4
Synthetic peptides processed on the polyacrylamide gel (SDS-PAGE) were transferred to the nitrocellulose membrane for analysis by Wester blot (TOWBIN et al., 1979). The nitrocellulose membrane (Merck) was previously incubated in ice cold transfer buffer (0.58% Tris Base pH 8.3, 20% methanol and 0.29% glycine). For this, the membrane was placed in the “Mini Trans-Blot” (Bio-Rad) electrotransfer system containing the same buffer and the transfer was performed at 100 V for 90 minutes. The membrane was incubated in TBS-Tween (10 mM Tris-HCl pH 7.5; 150 mM NaCl, 0.05% Tween-20) plus 5% skim milk powder for 12 hours at 4° C. under low agitation, for saturation of non-specific binding sites. The membrane was then incubated with each serum from each mouse alone or incubated with calf serum for 2 hours at room temperature under slow stirring. […]

Sequence: GASTDDAAAAAKIVAMAYGRGGGGGASSVDALTATKLVAAALGH (Synthetic hybrid peptide) [P44]
- Peptide Reactivity, Mice serum inoculated with pool (serum of BALB/c mice): —
- Peptide Reactivity, Mice serum inoculated with isolated peptides 1 (serum of BALB/c mice): X
- Peptide Reactivity, Mice serum inoculated with isolated peptides 2 (serum of BALB/c mice): X
- Peptide Reactivity, Mice serum inoculated with isolated peptides 3 (serum of BALB/c mice): X
- Peptide Reactivity, Mice serum inoculated with Saline (Negative Control) (serum of BALB/c mice): —
- Reaction with pool of peptides, Mouse 1 serum (serum of BALB/c mice): —
- Reaction with pool of peptides, Mouse 2 serum (serum of BALB/c mice): —
- Reaction with pool of peptides, Mouse 3 serum (serum of BALB/c mice): —
- Dot-ELISA reaction of sera from mice inoculated with hybrid peptides alone (serum of BALB/c mice): reacted
- Peptide Reactivity, Calf serum inoculated with pool (calf serum [1]): X
- Dot-ELISA reaction of calf serum inoculated with the peptide pool with the antigen (calf serum [1]): reacted
- Reaction of sera from serologically positive cattle for A. marginale with synthetic peptide [2]: reacted
- Reaction of sera from vaccinated cattle for A. marginale with synthetic peptide [2]: reacted
- Western blotting reactivity of calf serum inoculated with the peptide pool (calf serum [3]): showed reactivity
- Western blotting reaction of serum of mice inoculated with synthetic peptide (mouse serum): reacted

Sequence: LAESTEGNLEEVWILGKGGGGFSESMKALIKKYVDTSKPTIYVDQGTVMKV (Synthetic hybrid peptide) [P51]
- Peptide Reactivity, Mice serum inoculated with pool (serum of BALB/c mice): X
- Peptide Reactivity, Mice serum inoculated with isolated peptides 1 (serum of BALB/c mice): —
- Peptide Reactivity, Mice serum inoculated with isolated peptides 2 (serum of BALB/c mice): X
- Peptide Reactivity, Mice serum inoculated with isolated peptides 3 (serum of BALB/c mice): X
- Peptide Reactivity, Mice serum inoculated with Saline (Negative Control) (serum of BALB/c mice): —
- Reaction with pool of peptides, Mouse 1 serum (serum of BALB/c mice): —
- Reaction with pool of peptides, Mouse 2 serum (serum of BALB/c mice): X
- Reaction with pool of peptides, Mouse 3 serum (serum of BALB/c mice): —
- Dot-ELISA reaction of sera from mice inoculated with hybrid peptides alone (serum of BALB/c mice): reacted
- Dot-ELISA reaction of mouse sera inoculated with the peptide pool (serum of BALB/c mice): reacted
- Peptide Reactivity, Calf serum inoculated with pool (calf serum [1]): X
- Dot-ELISA reaction of calf serum inoculated with the peptide pool with the antigen (calf serum [1]): reacted
- Western blotting reactivity of calf serum inoculated with the peptide pool (calf serum [3]): showed reactivity

Sequence: SECVSLQPTDSSSASGQQQEGGGGLQGHMIDAVLETAINSDIPGVLRAIVSRDV (Synthetic hybrid peptide) [P54]
- Peptide Reactivity, Mice serum inoculated with pool (serum of BALB/c mice): X
- Peptide Reactivity, Mice serum inoculated with isolated peptides 1 (serum of BALB/c mice): X
- Peptide Reactivity, Mice serum inoculated with isolated peptides 2 (serum of BALB/c mice): X
- Peptide Reactivity, Mice serum inoculated with isolated peptides 3 (serum of BALB/c mice): X
- Peptide Reactivity, Mice serum inoculated with Saline (Negative Control) (serum of BALB/c mice): —
- Reaction with pool of peptides, Mouse 1 serum (serum of BALB/c mice): —
- Reaction with pool of peptides, Mouse 2 serum (serum of BALB/c mice): X
- Reaction with pool of peptides, Mouse 3 serum (serum of BALB/c mice): —
- Dot-ELISA reaction of sera from mice inoculated with hybrid peptides alone (serum of BALB/c mice): reacted
- Dot-ELISA reaction of mouse sera inoculated with the peptide pool (serum of BALB/c mice): reacted
- Peptide Reactivity, Calf serum inoculated with pool (calf serum [1]): —
- Reaction of sera from serologically positive cattle for A. marginale with synthetic peptide [2]: reacted
- Western blotting reaction of serum of mice inoculated with synthetic peptide (mouse serum): reacted

Sequence: SKVASVEYILAARGGGGQVDRLANALGK (Synthetic hybrid peptide) [P28]
- Peptide Reactivity, Mice serum inoculated with pool (serum of BALB/c mice): —
- Peptide Reactivity, Mice serum inoculated with isolated peptides 1 (serum of BALB/c mice): —
- Peptide Reactivity, Mice serum inoculated with isolated peptides 2 (serum of BALB/c mice): —
- Peptide Reactivity, Mice serum inoculated with isolated peptides 3 (serum of BALB/c mice): —
- Peptide Reactivity, Mice serum inoculated with Saline (Negative Control) (serum of BALB/c mice): —
- Reaction with pool of peptides, Mouse 1 serum (serum of BALB/c mice): —
- Reaction with pool of peptides, Mouse 2 serum (serum of BALB/c mice): X
- Reaction with pool of peptides, Mouse 3 serum (serum of BALB/c mice): —
- Dot-ELISA reaction of mouse sera inoculated with the peptide pool (serum of BALB/c mice): reacted
- Peptide Reactivity, Calf serum inoculated with pool (calf serum [1]): —
- Reaction of sera from serologically positive cattle for A. marginale with synthetic peptide [2]: reacted
- Reaction of sera from vaccinated cattle for A. marginale with synthetic peptide [2]: reacted

Sequence: SSVSSQSDQASTSSQLGGGGAMGDSVHWKVKPVDNKLFIMP (Synthetic hybrid peptide) [P41]
- Peptide Reactivity, Mice serum inoculated with pool (serum of BALB/c mice): —
- Peptide Reactivity, Mice serum inoculated with isolated peptides 1 (serum of BALB/c mice): —
- Peptide Reactivity, Mice serum inoculated with isolated peptides 2 (serum of BALB/c mice): —
- Peptide Reactivity, Mice serum inoculated with isolated peptides 3 (serum of BALB/c mice): —
- Peptide Reactivity, Mice serum inoculated with Saline (Negative Control) (serum of BALB/c mice): —
- Reaction with pool of peptides, Mouse 1 serum (serum of BALB/c mice): —
- Reaction with pool of peptides, Mouse 2 serum (serum of BALB/c mice): —
- Reaction with pool of peptides, Mouse 3 serum (serum of BALB/c mice): —
- Peptide Reactivity, Calf serum inoculated with pool (calf serum [1]): X
- Dot-ELISA reaction of calf serum inoculated with the peptide pool with the antigen (calf serum [1]): reacted
- Western blotting reactivity of calf serum inoculated with the peptide pool (calf serum [3]): showed reactivity
